Measurements taken from patent US4749710A, “Immunosuppressive agents” (priority 1985, dated 1988).
Like-named read-outs stand apart in the source and are kept apart here.

Columns and labels:
Type in all cases: cell-based
[1] = test system: murine cytotoxic T-lymphocyte responses; assay: cells; conditions: for CTL activity (% specific ^51 Cr release): 90:1 effector to target
Source text: Immunosuppressive Activity of Vitamin D compounds on cytotoxic T lymphocyte Responses-General Test Description
Cytotoxic thymus-derived lymphocytes (CTL) constitute an important aspect of immune function and, as a result, play a key role in the rejection of grafted cells, tissues and organs. It is, therefore, essential to suppress CTL generation in a clinical situation in which CTL function is antithetical to the desired outcome as, for example, in transplantation. Cytotoxic T-lymphocytes have been studied for several years by many investigators and methods to evaluate CTL responses in vitro are well established.
As described below, CTL responses as affected by Vitamin D derivatives, were studied in vitro using cells from lab animals and human volunteers. Cytotoxic T-lymphocytes were generated from responder lymphoid cells in tissue culture medium during an incubation period of 6 days by exposure to foreign stimulator cells, i.e. from a genetically disparate source. A portion of the resultant effector cells were CTL capable of killing fresh cells related to the stimulator cells employed in the 6 day culture. To detect killing of cells by CTL, fresh target cells were incubated in excess ^51 chromium (as sodium chromate) until they were extensively labelled. Since target cells will retain the internalized radioisotope as long as they are viable but release the label when they are killed, CTL activity was assessed by quantitating the chromium released from target cells after a 4 or 18 hour incubation with CTL. Immunosuppression produced by Vitamin D derivatives was gauged as the ability to inhibit CTL responses during the initial incubation period relative to control cultures to which no Vitamin D derivative was added.
Female BALB/c By and C57BL/6 mice were obtained from Jackson Laboratories and were used between 8 and 10 weeks of age. Mice were given food and water ad libitum and were kept in a 12 hour light and 12 hour dark cycle.
For murine cultures, minimal essential medium with Hank's salts was supplemented to 1 millimolar with sodium pyruvate, to 0.1 millimolar with nonessential amino acids, to 2 millimolar with 1-glutamine, to 10% (v/v) with heat-inactivated fetal bovine serum, to 50 micrograms per ml with gentamicin, and to 1000 milligrams per liter with sodium bicarbonate and was used as tissue culture medium.
Stock solutions of Vitamin D derivatives were made in argon-saturated ethanol at a final concentration of 1×10^-2 molar, were covered with argon before sealing and were stored at -20° C. in the dark. Reduced lighting conditions were always employed when working with compounds. Compounds were diluted in tissue culture medium to 1×10^-4 molar and all subsequent dilutions were done in tissue culture medium containing 1% v/v ethanol. The final dilution into culture vessels was 1:10 thus keeping the vehicle concentration constant at 0.1% while varying the concentration of compound as tabulated in the results. For purposes of control, mixed leukocyte cultures were incubated in medium only (medium control) or in medium containing a final concentration of 0.1% ethanol (vehicle control).
Murine cytotoxic T-lymphocytes were generated in mixed leukocyte cultures by known methods. Specifically, single cell suspensions were prepared from spleens by gentle disruption in balanced salt solution (Hanks' balanced salt solution supplemented to 10%, v/v, with fetal bovine serum). After sedimentation on ice to remove particulate debris, cell suspensions were centrifuged at 400xg and were resuspended in fresh balanced salt solution. Cells to be used as stimulator cells were precluded from proliferating or generating cytotoxic T-lymphocytes by exposure to 1000 rads of gamma irradiation using a ^137 cesium source. […]

[2] = Viability / viable cell recovery of cultured murine cells (trypan blue dye exclusion); conditions: mouse, trypan blue exclusion
Procedure: (§1) Murine cytotoxic T-lymphocytes were generated in mixed leukocyte cultures by known methods. Specifically, single cell suspensions were prepared from spleens by gentle disruption in balanced salt solution (Hanks' balanced salt solution supplemented to 10%, v/v, with fetal bovine serum). After sedimentation on ice to remove particulate debris, cell suspensions were centrifuged at 400xg and were resuspended in fresh balanced salt solution. Cells to be used as stimulator cells were precluded from proliferating or generating cytotoxic T-lymphocytes by exposure to 1000 rads of gamma irradiation using a ^137 cesium source. […] Unless otherwise indicated, mixed leukocyte cultures were incubated at 37° C. for 6 days in a humidified atmosphere of 5% CO2 in air. The murine cytotoxic T-lymphocyte assay was conducted as follows. […] Cell pellets were resuspended in tissue culture medium and viable cells were enumerated by microscopy after exposure to trypan blue. Percent viability was calculated according to the formula: [formula] During the mixed leukocyte culture phase of the murine tests, three each of medium control and vehicle control cultures were included; each being assayed separately for cell viability and CTL activity. Unless otherwise indicated, single cultures were used to test for the effect of a particular concentration of any Vitamin D derivative. Moreover, cell viability was generally assessed only from control cultures; the resultant mean values being used to prepare desired viable effector cell concentrations from all cultures. The results for control cultures are expressed as the mean from replicate mixed leukocyte cultures±standard deviation thus establishing the between-culture variability inherent to any particular experiment. That changes in CTL activity were compound-induced was evidenced by dose-dependent changes in CTL activity measured from single cultures which exceeded the variability of the test system. […] The data shown in Table II below address this point. […] | ^b The viability of cells from each culture was determined by trypan

cultured murine cells = assay: as above; conditions: immunosuppressive concentrations
Procedure: as §1

C=C1/C(=C\C=C2/CCC[C@]3(C)[C@@H]([C@H](C)/C=C/[C@H](C)C(C)(C)O)CC[C@@H]23)C[C@@H](O)C[C@@H]1O [1α,25-(OH)2 --D2, 1α,25-Dihydroxyergocalciferol]
suppression of murine cytotoxic T-lymphocyte responses (in words) [1]: suppress murine cytotoxic T-lymphocyte responses | inhibition at 10 µM ([1]; Mus musculus, T-lymphocyte, Table I, 1 × 10^-5 molar, vs vehicle control, read-out: Inhibition of CTL activity (%)): 91% | inhibition at 1 µM ([1]; Mus musculus, T-lymphocyte, Table I, 1 × 10^-6 molar, vs vehicle control, read-out: Inhibition of CTL activity (%)): 63% | inhibition at 0.1 µM ([1]; Mus musculus, T-lymphocyte, Table I, 1 × 10^-7 molar, vs vehicle control, read-out: Inhibition of CTL activity (%)): 48% | inhibition at 0.01 µM ([1]; Mus musculus, T-lymphocyte, Table I, 1 × 10^-8 molar, vs vehicle control, read-out: Inhibition of CTL activity (%)): 40% | inhibition at 0.001 µM ([1]; Mus musculus, T-lymphocyte, Table I, 1 × 10^-9 molar, vs vehicle control, read-out: Inhibition of CTL activity (%)): 20% | inhibition at 0.0001 µM ([1]; Mus musculus, T-lymphocyte, Table I, 1 × 10^-10 molar, vs vehicle control, read-out: Inhibition of CTL activity (%)): 3% | inhibition at 1 µM ([1]; Mus musculus, T-lymphocyte, Table II, 1 × 10^-6 molar, vs vehicle, read-out: Inhibition of CTL activity (%)): 56% | inhibition at 0.1 µM ([1]; Mus musculus, T-lymphocyte, Table II, 1 × 10^-7 molar, vs vehicle, read-out: Inhibition of CTL activity (%)): 56% | inhibition at 0.01 µM ([1]; Mus musculus, T-lymphocyte, Table II, 1 × 10^-8 molar, vs vehicle, read-out: Inhibition of CTL activity (%)): 37% | inhibition at 0.001 µM ([1]; Mus musculus, T-lymphocyte, Table II, 1 × 10^-9 molar, vs vehicle, read-out: Inhibition of CTL activity (%)): 20% | inhibition at 0.0001 µM ([1]; Mus musculus, T-lymphocyte, Table II, 1 × 10^-10 molar, vs vehicle, read-out: Inhibition of CTL activity (%)): 20% | CTL activity (% specific ^51 Cr release) ([1]; Table I, 1 × 10^-5 molar): 5 % specific ^51 Cr release | CTL activity (% specific ^51 Cr release) ([1]; Table I, 1 × 10^-6 molar): 20 % specific ^51 Cr release | CTL activity (% specific ^51 Cr release) ([1]; Table I, 1 × 10^-7 molar): 28 % specific ^51 Cr release | CTL activity (% specific ^51 Cr release) ([1]; Table I, 1 × 10^-8 molar): 32 % specific ^51 Cr release | CTL activity (% specific ^51 Cr release) ([1]; Table I, 1 × 10^-9 molar): 43 % specific ^51 Cr release | CTL activity (% specific ^51 Cr release) ([1]; Table I, 1 × 10^-10 molar): 52 % specific ^51 Cr release | CTL activity (% specific ^51 Cr release) ([1]; Table II, 1 × 10^-6 molar): 21 % specific ^51 Cr release | CTL activity (% specific ^51 Cr release) ([1]; Table II, 1 × 10^-7 molar): 21 % specific ^51 Cr release | CTL activity (% specific ^51 Cr release) ([1]; Table II, 1 × 10^-8 molar): 30 % specific ^51 Cr release | CTL activity (% specific ^51 Cr release) ([1]; Table II, 1 × 10^-9 molar): 38 % specific ^51 Cr release | CTL activity (% specific ^51 Cr release) ([1]; Table II, 1 × 10^-10 molar): 38 % specific ^51 Cr release | viability at 0.0001 µM [2]: 57% | viability at 0.001 µM [2]: 58% | viability at 0.01 µM [2]: 57% | viability at 0.1 µM [2]: 57% | viability at 1 µM [2]: 57% | toxicity to cultured murine cells (in words) (cultured murine cells): not toxic to cultured murine cells
